In ChEMBL document CHEMBL1201862, “PubChem BioAssay data set” (2004):
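Briefly, cells in 96-well plates were exposed to five compound concentrations for 48 h, and endpoints were estimated by linear interpolation. GI50 = concentration required for 50% inhibition of growth.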 Active and inactive are the calls of the source. No stated cut-off is given here; in the data, active = GI50 up to about 1.1 µM and inactive = higher.

What was measured:
Assay in all cases: inhibition of tumour cell growth, NCI panel, 48 h
NCI/ADR-RES = system: NCI/ADR-RES
HOP-92 = system: HOP-92
HCT-116 = system: HCT-116
MCF7 = system: MCF7
SF-268 = system: SF-268
NCI-H226 = system: NCI-H226
T47D = system: T47D
UO-31 = system: UO-31
U-251 = system: U-251
HCT-15 = system: HCT-15
ACHN = system: ACHN
CAKI-1 = system: CAKI-1
SK-MEL-5 = system: SK-MEL-5
UACC-257 = system: UACC-257
CCRF-CEM = system: CCRF-CEM
HT-29 = system: HT-29
MDA-MB-435 = system: MDA-MB-435
SK-OV-3 = system: SK-OV-3
UACC-62 = system: UACC-62
HL-60 = system: HL-60
NCI-H460 = system: NCI-H460
NCI-H522 = system: NCI-H522
SNB-19 = system: SNB-19
KM12 = system: KM12
HOP-62 = system: HOP-62
COLO 205 = system: COLO 205
SK-MEL-2 = system: SK-MEL-2
DU-145 = system: DU-145
IGROV-1 = system: IGROV-1
SF-295 = system: SF-295
RXF 393 = system: RXF 393
NCI-H23 = system: NCI-H23
PC-3 = system: PC-3
BT-549 = system: BT-549
Hs-578T = system: Hs-578T
K562 = system: K562
MOLT-4 = system: MOLT-4
TK-10 = system: TK-10
OVCAR-4 = system: OVCAR-4
Malme-3M = system: Malme-3M
OVCAR-5 = system: OVCAR-5
SNB-75 = system: SNB-75
SF-539 = system: SF-539
OVCAR-3 = system: OVCAR-3
M14 = system: M14
OVCAR-8 = system: OVCAR-8
EKVX = system: EKVX
MDA-N = system: MDA-N
MDA-MB-231 = system: MDA-MB-231
LOX IMVI = system: LOX IMVI
SN12C = system: SN12C
HCC 2998 = system: HCC 2998
SW-620 = system: SW-620
786-0 = system: 786-0
SR = system: SR
SK-MEL-28 = system: SK-MEL-28
RPMI-8226 = system: RPMI-8226
A549 = system: A549
A498 = system: A498

CC1OC(OC2C(OC(=O)[C@@H]3CC(C)(C)C[C@H]4C5=CC[C@@H]6[C@@]7(C)C[C@H](O)[C@H](OC8OC(CO)C(O)C(O)C8O)[C@@](C)(CO)[C@@H]7[C@H](O)C[C@@]6(C)[C@]5(C)CC[C@@]34C)OCC(O)C2O)C(O)C(O)C1O (some centres not stated)
GI50 (NCI/ADR-RES): > 7.5 µM (inactive)
GI50 (HOP-92): > 7.5 µM (inactive)
GI50 (HCT-116): > 7.5 µM (inactive)
GI50 (MCF7): > 7.5 µM (inactive)
GI50 (SF-268): > 7.5 µM (inactive)
GI50 (NCI-H226): > 7.5 µM (inactive)
GI50 (T47D): > 7.5 µM (inactive)
GI50 (UO-31): > 7.5 µM (inactive)
GI50 (U-251): > 7.5 µM (inactive)
GI50 (HCT-15): > 7.5 µM
GI50 (ACHN): > 7.5 µM (inactive)
GI50 (CAKI-1): > 7.5 µM (inactive)
GI50 (SK-MEL-5): > 7.5 µM (inactive)
GI50 (UACC-257): > 7.5 µM (inactive)
GI50 (CCRF-CEM): > 7.5 µM (inactive)
GI50 (HT-29): > 7.5 µM (inactive)
GI50 (MDA-MB-435): > 7.5 µM (inactive)
GI50 (SK-OV-3): > 7.5 µM (inactive)
GI50 (UACC-62): > 7.5 µM (inactive)
GI50 (HL-60): > 7.5 µM (inactive)
GI50 (NCI-H460): > 7.5 µM (inactive)
GI50 (NCI-H522): > 7.5 µM (inactive)
GI50 (SNB-19): > 7.5 µM (inactive)
GI50 (KM12): > 7.5 µM (inactive)
GI50 (HOP-62): > 7.5 µM (inactive)
GI50 (COLO 205): > 7.5 µM (inactive)
GI50 (SK-MEL-2): > 7.5 µM (inactive)
GI50 (DU-145): > 7.5 µM (inactive)
GI50 (IGROV-1): > 7.5 µM (inactive)
GI50 (SF-295): > 7.5 µM (inactive)
GI50 (RXF 393): > 7.5 µM (inactive)
GI50 (NCI-H23): > 7.5 µM (inactive)
GI50 (PC-3): > 7.5 µM (inactive)
GI50 (BT-549): > 7.5 µM (inactive)
GI50 (Hs-578T): > 7.5 µM (inactive)
GI50 (K562): > 7.5 µM (inactive)
GI50 (MOLT-4): > 7.5 µM (inactive)
GI50 (TK-10): > 7.5 µM (inactive)
GI50 (OVCAR-4): > 7.5 µM (inactive)
GI50 (Malme-3M): > 7.5 µM (inactive)
GI50 (OVCAR-5): > 7.5 µM (inactive)
GI50 (SNB-75): > 7.5 µM (inactive)
GI50 (SF-539): > 7.5 µM (inactive)
GI50 (OVCAR-3): > 7.5 µM (inactive)
GI50 (M14): > 7.5 µM (inactive)
GI50 (OVCAR-8): > 7.5 µM (inactive)
GI50 (EKVX): > 7.5 µM (inactive)
GI50 (MDA-N): > 7.5 µM (inactive)
GI50 (MDA-MB-231): > 7.5 µM (inactive)
GI50 (LOX IMVI): > 7.5 µM (inactive)
GI50 (SN12C): > 7.5 µM (inactive)
GI50 (HCC 2998): > 7.5 µM (inactive)
GI50 (SW-620): > 7.5 µM (inactive)
GI50 (786-0): > 7.5 µM (inactive)

Cc1c2c(cc3c1C(=O)C(O)=C([C@@H](C)CO)C3=O)C(C)(C)CCC2
GI50 (NCI/ADR-RES): 23.3 µM (inactive)
GI50 (HOP-92): 35 µM (inactive)
GI50 (HCT-116): 25.7 µM (inactive)
GI50 (SF-268): 15 µM (inactive)
GI50 (NCI-H226): 33.8 µM (inactive)
GI50 (T47D): 32.8 µM (inactive)
GI50 (UO-31): 17.5 µM (inactive)
GI50 (U-251): 17.5 µM (inactive)
GI50 (HCT-15): 29.4 µM
GI50 (CAKI-1): 33.4 µM (inactive)
GI50 (SK-MEL-5): 22.2 µM (inactive)
GI50 (UACC-257): 35.6 µM (inactive)
GI50 (CCRF-CEM): 10.1 µM (inactive)
GI50 (HT-29): 15.8 µM (inactive)
GI50 (MDA-MB-435): 26.9 µM (inactive)
GI50 (SR): 2.84 µM (inactive)
GI50 (SK-MEL-28): 28 µM (inactive)
GI50 (SK-OV-3): 32.7 µM (inactive)
GI50 (UACC-62): 28.2 µM (inactive)
GI50 (NCI-H522): 21.3 µM (inactive)
GI50 (SNB-19): 5.07 µM (inactive)
GI50 (KM12): 14.3 µM (inactive)
GI50 (HOP-62): 22.4 µM (inactive)
GI50 (COLO 205): 27 µM (inactive)
GI50 (SK-MEL-2): 17.1 µM (inactive)
GI50 (DU-145): 30.5 µM (inactive)
GI50 (IGROV-1): 29 µM (inactive)
GI50 (SF-295): 22.3 µM (inactive)
GI50 (RXF 393): 32.1 µM (inactive)
GI50 (NCI-H23): 17.7 µM (inactive)
GI50 (PC-3): 19.1 µM (inactive)
GI50 (BT-549): 35.2 µM (inactive)
GI50 (Hs-578T): 16.7 µM (inactive)
GI50 (K562): 38.7 µM (inactive)
GI50 (MOLT-4): 13.4 µM (inactive)
GI50 (TK-10): 42.4 µM (inactive)
GI50 (OVCAR-4): 31.3 µM (inactive)
GI50 (Malme-3M): 22.8 µM (inactive)
GI50 (OVCAR-5): 36.9 µM (inactive)
GI50 (SNB-75): 21.6 µM (inactive)
GI50 (OVCAR-3): 27 µM (inactive)
GI50 (RPMI-8226): 31.3 µM (inactive)
GI50 (M14): 23.2 µM (inactive)
GI50 (OVCAR-8): 25.5 µM (inactive)
GI50 (EKVX): 15.6 µM (inactive)
GI50 (MDA-N): 30.7 µM (inactive)
GI50 (A549): 29.8 µM (inactive)
GI50 (MDA-MB-231): 23.4 µM (inactive)
GI50 (LOX IMVI): 28.3 µM (inactive)
GI50 (SN12C): 27.7 µM (inactive)
GI50 (SW-620): 30.2 µM (inactive)
GI50 (786-0): 32.3 µM (inactive)
GI50 (A498): 25.6 µM (inactive)
